Measurements from patent US20110015080A1, “Solution-based methods for RNA expression profiling” (MASSACHUSETTS INSTITUTE OF TECHNOLOGY, priority 2005, published 2011).
Several values for one entry are separate records, joined by “and”; a condition that tells them apart may be missing. Identical values can stand only once.

Tested on: HL60 (human promyelocytic leukemia) cells
Test: LMA-FlexMAP analysis of microtiter well cultures of HL60 cells treated with tretinoin or DMSO, KNN classification
[1] = HL60 cells treated with tretinoin, Experiment 3, replicate samples
[2] = HL60 microtiter plate wells tretinoin40-47 (replicates)

`CC1=C(/C=C/C(C)=C/C=C/C(C)=C/C(=O)O)C(C)(C)CCC1` [tretinoin, all-trans-retinoic acid] was tested, and the “FlexMap signal, NM_004741 (LUA#89)” value [1] was 397 and 326 and 70 and 77 and 131 and 204.5 and 315 and 415.5 and 300.5 and 58, the “FlexMap signal, NM_004759 (LUA#37)” value [1] was 242 and 139.5 and 32 and 41 and 60 and 119 and 132.5 and 213 and 159 and 28 and the “FlexMap signal, NM_005008 (LUA#77)” value [1] was 242 and 301.5 and 53.5 and 87 and 114 and 239.5 and 315 and 316 and 232 and 41. The “FlexMap signal, NM_005375 (LUA#86)” value [1] was 548 and 553 and 131 and 196 and 334 and 547.5 and 602 and 531 and 86, the “FlexMap signal, NM_005566 (LUA#85)” value [1] was 539.5 and 610.5 and 89 and 117 and 183 and 197.5 and 597 and 632 and 489 and 45 and the “FlexMap signal, NM_005914 (LUA#60)” value [1] was 525.5 and 804.5 and 102 and 218.5 and 314 and 594 and 914 and 889 and 716.5 and 44. The “FlexMap signal, NM_005915 (LUA#72)” value [1] was 46 and 42 and 25 and 27 and 30 and 35 and 40 and 37 and 38 and 29, the “FlexMap signal, NM_005952 (LUA#66)” value [1] was 204 and 199 and 43 and 56 and 74 and 143 and 200 and 197.5 and 156 and 34 and the “FlexMap signal, NM_005980 (LUA#73)” value [1] was 160 and 157 (2×) and 32 and 43 and 52 and 102.5 and 166 and 132 and 34. The “FlexMap signal, NM_006019 (LUA#35)” value [1] was 810 and 792 and 73 and 140 and 227 and 497 and 747 and 787.5 and 655 and 34, the “FlexMap signal, NM_006138 (LUA#56)” value [1] was 87 and 95 and 37 and 40 and 49 and 67 and 97 and 102.5 and 86 and 38 and the “FlexMap signal, NM_006432 (LUA#27)” value [1] was 1364 and 1394 and 190 and 358.5 and 574 and 1118 and 1397.5 and 1403 and 1160 and 68. For the same compound, the “FlexMap signal, NM_006452 (LUA#71)” value [1] was 52 and 60 and 25 and 37 and 37.5 and 43 and 57 and 71 and 44 and 23.5, the “FlexMap signal, NM_006985 (LUA#58)” value [1] was 48 and 59 (2×) and 31 and 32 and 37.5 and 45.5 and 52 and 46.5 and 30 and the “FlexMap signal, NM_007282 (LUA#16)” value [1] was 46 and 62.5 and 27 and 29 and 30 and 42 and 53 and 61.5 and 58 and 28. The “FlexMap signal, NM_014333 (LUA#26)” value [1] was 613 and 656.5 and 74 and 128 and 211 and 427 and 674 and 705 and 572 and 41, the “FlexMap signal, NM_014366 (LUA#61)” value [1] was 217 and 294 and 38 and 61 and 89.5 and 191 and 291.5 and 299.5 and 235 and 33.5 and the “FlexMap signal, NM_014573 (LUA#70)” value [1] was 138.5 and 144.5 and 40 and 45 and 56 and 93 and 156 and 161.5 and 123 and 38.5. For the same compound, the “FlexMap signal, NM_015201 (LUA#57)” value [1] was 208 and 198 and 40 and 49 and 64 and 139 and 197 and 228 and 156 and 31, the “FlexMap signal, NM_018115 (LUA#63)” value [1] was 1217 and 860.5 and 109.5 and 234 and 409 and 710.5 and 896 and 1206.5 and 927 and 61 and the “FlexMap signal, NM_018164 (LUA#69)” value [1] was 148.5 and 149 and 37 and 46 and 67 and 139 and 150 and 156.5 and 133 and 36. For the same compound, the “FlexMap signal, NM_018256 (LUA#83)” value [1] was 638.5 and 688.5 and 178.5 and 177 and 268 and 371 and 633 and 804.5 and 779 and 151, the “FlexMap signal, NM_018890 (LUA#33)” value [1] was 737 and 769 and 82 and 151.5 and 240 and 534.5 and 760 and 762 and 652 and 41 and the “FlexMap signal, NM_019058 (LUA#75)” value [1] was 102 and 129 and 37 and 48 and 56 and 90 and 126 and 97 and 34. The “FlexMap signal, NM_020117 (LUA#78)” value [1] was 487 and 502 and 65 and 114 and 184 and 371 and 519 and 543 and 415 and 45, the “FlexMap signal, NM_021103 (LUA#41)” value [1] was 629 and 2096 and 467.5 and 781.5 and 992 and 1953 and 2465.5 and 2408 and 495 and 142 and the “FlexMap signal, NM_021203 (LUA#80)” value [1] was 445.5 and 471 and 65 and 109 and 165 and 355 and 480 and 514 and 369 and 46. The “FlexMap signal, NM_021974 (LUA#64)” value [1] was 776 and 891 and 136.5 and 255.5 and 403 and 781.5 and 929 and 940 and 667.5 and 55, the “FlexMap signal, NM_024045 (LUA#65)” value [1] was 112 and 127.5 and 35 and 40 and 57 and 92.5 and 135.5 and 110 and 29 and the “FlexMap signal, TFRC (LUA#92)” value [1] was 252 and 255 and 54 and 66 and 90 and 168 and 256 and 272 and 213 and 45. The “ACTB LUA#91 FlexMap level” value [2] was 344 and 2113 and 2976 and 3020 and 2200 and 2601 and 2521 and 1195, the “GAPDH_3 LUA#95 FlexMap level” value [2] was 1659 and 3754 and 4065 and 4240 and 3880 and 3379 and 3353.5 and 1707.5 and the “GAPDH_5 LUA#93 FlexMap level” value [2] was 238 and 1501 and 2205.5 and 2064 and 1482 and 1768.5 and 1737 and 843. For the same compound, the “GAPDH_M LUA#94 FlexMap level” value [2] was 642 and 3318 and 3783.5 and 3886 and 3205 and 3303 and 3248 and 1513, the “NM_000070 LUA#2 FlexMap level” value [2] was 84.5 and 400 and 756 and 769.5 and 717.5 and 638.5 and 741 and 490.5 and the “NM_000147 LUA#29 FlexMap level” value [2] was 48 and 184 and 276.5 and 330.5 and 274 and 275 and 318 and 288. The “NM_000153 LUA#10 FlexMap level” value [2] was 35 and 90 and 138 (2×) and 150 and 120 and 171.5 and 223, the “NM_000211 LUA#39 FlexMap level” value [2] was 81 and 598.5 and 1229 and 1162.5 and 868 and 1061 and 973 and 440.5 and the “NM_000250 LUA#87 FlexMap level” value [2] was 261.5 and 1504 and 2135 and 2243 and 1820 and 2094 and 1863 and 1124. The “NM_000414 LUA#22 FlexMap level” value [2] was 79.5 and 477 and 902 and 920 and 503 and 800 and 838 and 646, the “NM_000433 LUA#28 FlexMap level” value [2] was 53 and 234 and 451.5 and 466 and 318 and 421 and 370.5 and 244.5 and the “NM_000584 LUA#30 FlexMap level” value [2] was 45 and 189 and 470 and 461 and 435 and 379 and 597 and 352.
